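All cell lines were grown in 96-well plates and treated with compound for 48 hours. The concentration for 50% growth inhibition is given as GI50. The concentration for full growth arrest is given as TGI.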
Columns and labels:
Test in all cases: NCI anticancer screen, dose series, 48 h
CAKI-1 renal = tested on: CAKI-1 renal
HOP-62 NSCLC = tested on: HOP-62 NSCLC
RXF 393 renal = tested on: RXF 393 renal
HL-60(TB) leukemia = tested on: HL-60(TB) leukemia
SW-620 colon = tested on: SW-620 colon
OVCAR-5 ovarian = tested on: OVCAR-5 ovarian
SF-539 CNS = tested on: SF-539 CNS
SK-OV-3 ovarian = tested on: SK-OV-3 ovarian
PC-3 prostate = tested on: PC-3 prostate
HCC-2998 colon = tested on: HCC-2998 colon
SN12C renal = tested on: SN12C renal
OVCAR-4 ovarian = tested on: OVCAR-4 ovarian
HT29 colon = tested on: HT29 colon
NCI/ADR-RES ovarian = tested on: NCI/ADR-RES ovarian
IGROV1 ovarian = tested on: IGROV1 ovarian
HCT-15 colon = tested on: HCT-15 colon
BT-549 breast = tested on: BT-549 breast
EKVX NSCLC = tested on: EKVX NSCLC
SK-MEL-28 melanoma = tested on: SK-MEL-28 melanoma
NCI-H23 lung = tested on: NCI-H23 lung
NCI-H522 lung = tested on: NCI-H522 lung
OVCAR-3 ovarian = tested on: OVCAR-3 ovarian
NCI-H460 lung = tested on: NCI-H460 lung
LOX IMVI melanoma = tested on: LOX IMVI melanoma
ACHN renal = tested on: ACHN renal
U251 CNS = tested on: U251 CNS
SK-MEL-5 melanoma = tested on: SK-MEL-5 melanoma
NCI-H226 lung = tested on: NCI-H226 lung
SK-MEL-2 melanoma = tested on: SK-MEL-2 melanoma
HOP-92 NSCLC = tested on: HOP-92 NSCLC
CCRF-CEM leukemia = tested on: CCRF-CEM leukemia
SNB-75 CNS = tested on: SNB-75 CNS
OVCAR-8 ovarian = tested on: OVCAR-8 ovarian
MALME-3M melanoma = tested on: MALME-3M melanoma
COLO 205 colon = tested on: COLO 205 colon
HCT-116 colon = tested on: HCT-116 colon
UACC-62 melanoma = tested on: UACC-62 melanoma
A549 NSCLC = tested on: A549 NSCLC
KM12 colon = tested on: KM12 colon
MOLT-4 leukemia = tested on: MOLT-4 leukemia
UACC-257 melanoma = tested on: UACC-257 melanoma
HS 578T breast = tested on: HS 578T breast
786-0 renal = tested on: 786-0 renal
SF-268 CNS = tested on: SF-268 CNS
TK-10 renal = tested on: TK-10 renal
RPMI-8226 leukemia = tested on: RPMI-8226 leukemia
A498 renal = tested on: A498 renal
K-562 leukemia = tested on: K-562 leukemia
M14 melanoma = tested on: M14 melanoma
MDA-MB-435 = tested on: MDA-MB-435
MCF7 breast = tested on: MCF7 breast
DU-145 prostate = tested on: DU-145 prostate
SF-295 CNS = tested on: SF-295 CNS
T-47D breast = tested on: T-47D breast
SNB-19 CNS = tested on: SNB-19 CNS
MDA-MB-231 breast = tested on: MDA-MB-231 breast
UO-31 renal = tested on: UO-31 renal

CCCC[C@@H](COC(=O)N(Cc1cccs1)Cc1cccs1)NC(=O)N[C@@H](CC(=O)OC)c1ccc2c(c1)OCO2
GI50 (CAKI-1 renal): > 100 µM
TGI (CAKI-1 renal): > 100 µM
GI50 (HOP-62 NSCLC): > 100 µM
TGI (HOP-62 NSCLC): > 100 µM
GI50 (RXF 393 renal): > 100 µM
TGI (RXF 393 renal): > 100 µM
GI50 (HL-60(TB) leukemia): > 100 µM
TGI (HL-60(TB) leukemia): > 100 µM
GI50 (SW-620 colon): > 100 µM
TGI (SW-620 colon): > 100 µM
GI50 (OVCAR-5 ovarian): > 100 µM
TGI (OVCAR-5 ovarian): > 100 µM
GI50 (SF-539 CNS): > 100 µM
TGI (SF-539 CNS): > 100 µM
GI50 (SK-OV-3 ovarian): > 100 µM
TGI (SK-OV-3 ovarian): > 100 µM
GI50 (PC-3 prostate): 9.09 µM
TGI (PC-3 prostate): > 100 µM
GI50 (HCC-2998 colon): > 100 µM
TGI (HCC-2998 colon): > 100 µM
GI50 (SN12C renal): > 100 µM
TGI (SN12C renal): > 100 µM
GI50 (OVCAR-4 ovarian): > 100 µM
TGI (OVCAR-4 ovarian): > 100 µM
GI50 (HT29 colon): > 100 µM
TGI (HT29 colon): > 100 µM
GI50 (NCI/ADR-RES ovarian): > 100 µM
TGI (NCI/ADR-RES ovarian): > 100 µM
GI50 (IGROV1 ovarian): > 100 µM
TGI (IGROV1 ovarian): > 100 µM
GI50 (HCT-15 colon): > 100 µM
TGI (HCT-15 colon): > 100 µM
GI50 (BT-549 breast): > 100 µM
TGI (BT-549 breast): > 100 µM
GI50 (EKVX NSCLC): > 100 µM
TGI (EKVX NSCLC): > 100 µM
GI50 (SK-MEL-28 melanoma): > 100 µM
TGI (SK-MEL-28 melanoma): > 100 µM
GI50 (NCI-H23 lung): > 100 µM
TGI (NCI-H23 lung): > 100 µM
GI50 (NCI-H522 lung): > 100 µM
TGI (NCI-H522 lung): > 100 µM
GI50 (OVCAR-3 ovarian): > 100 µM
TGI (OVCAR-3 ovarian): > 100 µM
GI50 (NCI-H460 lung): > 100 µM
TGI (NCI-H460 lung): > 100 µM
GI50 (LOX IMVI melanoma): > 100 µM
TGI (LOX IMVI melanoma): > 100 µM
GI50 (ACHN renal): > 100 µM
TGI (ACHN renal): > 100 µM
GI50 (U251 CNS): > 100 µM
TGI (U251 CNS): > 100 µM
GI50 (SK-MEL-5 melanoma): > 100 µM
TGI (SK-MEL-5 melanoma): > 100 µM
GI50 (NCI-H226 lung): > 100 µM
TGI (NCI-H226 lung): > 100 µM
GI50 (SK-MEL-2 melanoma): > 100 µM
TGI (SK-MEL-2 melanoma): > 100 µM
GI50 (HOP-92 NSCLC): > 100 µM
TGI (HOP-92 NSCLC): > 100 µM
GI50 (CCRF-CEM leukemia): > 100 µM
TGI (CCRF-CEM leukemia): > 100 µM
GI50 (SNB-75 CNS): > 100 µM
TGI (SNB-75 CNS): > 100 µM
GI50 (OVCAR-8 ovarian): > 100 µM
TGI (OVCAR-8 ovarian): > 100 µM
GI50 (MALME-3M melanoma): > 100 µM
TGI (MALME-3M melanoma): > 100 µM
GI50 (COLO 205 colon): > 100 µM
TGI (COLO 205 colon): > 100 µM
GI50 (HCT-116 colon): > 100 µM
TGI (HCT-116 colon): > 100 µM
GI50 (UACC-62 melanoma): > 100 µM
TGI (UACC-62 melanoma): > 100 µM
GI50 (A549 NSCLC): 67.7 µM
TGI (A549 NSCLC): > 100 µM
GI50 (KM12 colon): > 100 µM
TGI (KM12 colon): > 100 µM
GI50 (MOLT-4 leukemia): 5.19 µM
TGI (MOLT-4 leukemia): > 100 µM
GI50 (UACC-257 melanoma): > 100 µM
TGI (UACC-257 melanoma): > 100 µM
GI50 (HS 578T breast): > 100 µM
TGI (HS 578T breast): > 100 µM
GI50 (786-0 renal): > 100 µM
TGI (786-0 renal): > 100 µM
GI50 (SF-268 CNS): > 100 µM
TGI (SF-268 CNS): > 100 µM
GI50 (TK-10 renal): > 100 µM
TGI (TK-10 renal): > 100 µM
GI50 (RPMI-8226 leukemia): 8.11 µM
TGI (RPMI-8226 leukemia): > 100 µM
GI50 (A498 renal): > 100 µM
TGI (A498 renal): > 100 µM
GI50 (K-562 leukemia): 59.6 µM
TGI (K-562 leukemia): > 100 µM
GI50 (M14 melanoma): > 100 µM
TGI (M14 melanoma): > 100 µM
GI50 (MDA-MB-435): > 100 µM
TGI (MDA-MB-435): > 100 µM
GI50 (MCF7 breast): > 100 µM
TGI (MCF7 breast): > 100 µM
GI50 (DU-145 prostate): > 100 µM
TGI (DU-145 prostate): > 100 µM
GI50 (SF-295 CNS): > 100 µM
TGI (SF-295 CNS): > 100 µM

CN1CCN(c2ccc3[nH]c(C4=C(O)c5nc(CO)n(C)c5C(=O)C4=O)nc3n2)CC1
TGI (CAKI-1 renal): > 100 µM
TGI (HOP-62 NSCLC): > 100 µM
TGI (RXF 393 renal): 91.4 µM
TGI (HL-60(TB) leukemia): > 100 µM
TGI (SW-620 colon): > 100 µM
TGI (OVCAR-5 ovarian): > 100 µM
TGI (SF-539 CNS): > 100 µM
TGI (SK-OV-3 ovarian): > 100 µM
TGI (PC-3 prostate): > 100 µM
TGI (HCC-2998 colon): > 100 µM
TGI (SN12C renal): > 100 µM
TGI (OVCAR-4 ovarian): > 100 µM
TGI (HT29 colon): > 100 µM
TGI (NCI/ADR-RES ovarian): > 100 µM
TGI (IGROV1 ovarian): > 100 µM
TGI (HCT-15 colon): > 100 µM
TGI (BT-549 breast): > 100 µM
TGI (T-47D breast): > 100 µM
TGI (EKVX NSCLC): > 100 µM
TGI (SK-MEL-28 melanoma): > 100 µM
TGI (NCI-H23 lung): > 100 µM
TGI (SNB-19 CNS): > 100 µM
TGI (NCI-H522 lung): > 100 µM
TGI (OVCAR-3 ovarian): > 100 µM
TGI (NCI-H460 lung): > 100 µM
TGI (LOX IMVI melanoma): > 100 µM
TGI (MDA-MB-231 breast): > 100 µM
TGI (UO-31 renal): > 100 µM
TGI (ACHN renal): > 100 µM
TGI (U251 CNS): > 100 µM
TGI (NCI-H226 lung): > 100 µM
TGI (SK-MEL-2 melanoma): > 100 µM
TGI (HOP-92 NSCLC): > 100 µM
TGI (CCRF-CEM leukemia): > 100 µM
TGI (SNB-75 CNS): > 100 µM
TGI (OVCAR-8 ovarian): > 100 µM
TGI (MALME-3M melanoma): > 100 µM
TGI (COLO 205 colon): > 100 µM
TGI (HCT-116 colon): > 100 µM
TGI (UACC-62 melanoma): > 100 µM
TGI (A549 NSCLC): > 100 µM
TGI (KM12 colon): > 100 µM
TGI (MOLT-4 leukemia): > 100 µM
TGI (UACC-257 melanoma): > 100 µM
TGI (HS 578T breast): > 100 µM
TGI (786-0 renal): > 100 µM
TGI (SF-268 CNS): > 100 µM
TGI (RPMI-8226 leukemia): > 100 µM
TGI (K-562 leukemia): > 100 µM
TGI (M14 melanoma): > 100 µM
TGI (MDA-MB-435): > 100 µM
TGI (DU-145 prostate): > 100 µM
TGI (SF-295 CNS): > 100 µM

— PubChem BioAssay (NCI)
